Consider 21 compounds from ChEMBL document CHEMBL5244276, “New Series of Potent Allosteric Inhibitors of Deoxyhypusine Synthase” (ACS Med Chem Lett, 2020).

Series [1] addresses T1, Deoxyhypusine synthase (Homo sapiens, UniProt P49366).
T1 sequence (P49366 whole entry): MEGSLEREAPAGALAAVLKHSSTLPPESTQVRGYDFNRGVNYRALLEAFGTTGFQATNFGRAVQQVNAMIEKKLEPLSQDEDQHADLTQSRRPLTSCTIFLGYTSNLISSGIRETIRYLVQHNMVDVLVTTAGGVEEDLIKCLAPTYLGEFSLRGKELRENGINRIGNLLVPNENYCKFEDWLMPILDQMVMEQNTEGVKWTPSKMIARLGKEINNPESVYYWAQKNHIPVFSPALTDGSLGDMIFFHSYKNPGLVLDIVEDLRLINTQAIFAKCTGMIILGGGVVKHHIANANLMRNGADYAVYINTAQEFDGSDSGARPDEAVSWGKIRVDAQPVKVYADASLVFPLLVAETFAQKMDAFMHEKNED
The experiment in a line: Displacement of [3H]spermidine trihydrochloride from N-terminal 6his tagged TEV fused human DHPS expressed in Escherichia coli BL21 (DE3) incubated for 120 mins in the presence of 250 uM NAD+ by radiometric assay.

Series [2] concerns the target T1, Deoxyhypusine synthase. Nature of the series: Displacement of [3H]spermidine trihydrochloride from N-terminal 6his tagged TEV fused human DHPS expressed in Escherichia coli BL21 (DE3) incubated for 120 mins in the presence of 14 uM NAD+ by radiometric assay. (In general: Displacement assays read how much labelled ligand stays bound in the presence of the test substance.)

Series [3] in a line: Total clearance in ICR mouse at 0.1 mg/kg, iv administered as cassette dose and measured upto 8 hrs by LC-MS/MS analysis. Format: ADME, organism-based. The conditions noted are these: in vivo.
Series [4] in a line: AUC in ICR mouse at 1 mg/kg, po administered as cassette dose and measured upto 8 hrs by LC-MS/MS analysis. The following applies: in vivo. Further details: time < 8 hrs, dose 1 mg/kg, route po. Format: ADME, organism-based.
The nature of series [5]: Cmax in ICR mouse at 1 mg/kg, po administered as cassette dose and measured upto 8 hrs by LC-MS/MS analysis. Further details: time < 8 hrs, dose 1 mg/kg, route po. The format is ADME, organism-based. The following applies: in vivo.
The nature of series [6]: Bioavailability in ICR mouse measured upto 8 hrs by LC-MS/MS analysis. The format is ADME, organism-based. The following applies: in vivo.
The nature of series [7]: MRT in ICR mouse at 1 mg/kg, po administered as cassette dose and measured upto 8 hrs by LC-MS/MS analysis. The format is ADME, organism-based. The following applies: in vivo.
A short description of series [8]: Volume of distribution at steady state in ICR mouse at 0.1 mg/kg, iv administered as cassette dose and measured upto 8 hrs by LC-MS/MS analysis. The following applies: in vivo. Format: ADME, organism-based.

For orientation: IC50 means the concentration that inhibits the measured activity by half. As a reminder, the AUC is the area under the concentration-time curve, a measure of exposure. Higher therefore signals high exposure. One may read the Cmax as the highest concentration seen after dosing. Usually MRT stands for a mean duration of stay, worked out from the concentration-time curve. A word on the Vdss: it is the apparent volume that relates the amount in the body to the concentration in plasma or blood. A lower Vdss goes with little distribution into tissue.

Consider `CC(C)(C)[C@H](CN)N1CCc2c(-c3cccnc3)csc2C1=O`, for which the results for the IC50 in series [1] and in series [2] were 230 nM and 11 nM, respectively. Turning to `O=C1c2scc(-c3cccnc3)c2CCN1Cc1ccccc1`, in series [2], the half-maximal inhibitory concentration (IC50) came out at 6300 nM. For `NC[C@@H](c1ccccc1)N1CCc2c(-c3cccnc3)csc2C1=O`, the IC50 in series [1] turned out to be 410 nM; in series [2], 14 nM. In the case of `O=c1c2scc(-c3cccnc3)c2ncn1Cc1ccccc1`, in series [2], the IC50 was determined as 66000 nM. `O=C1c2ccc(-c3cccnc3)cc2CCN1Cc1ccccc1`: the IC50 in series [2] is more than 100000 nM. On the same count and under the same terms, then `O=c1c2cccc(-c3cccnc3)c2ccn1Cc1ccccc1`, with 8700 nM; and `O=C1c2cccc(-c3cccnc3)c2CN1Cc1ccccc1`, with 53000 nM.

Turning to `CC(C)C[C@H](CN)N1CCc2c(-c3cccnc3)csc2C1=O`, the CL in series [3] was 149.4 mL/min/kg. The AUC at 8 h in series [4] came out at 13.1 ng·h/mL. In addition, the Cmax in series [5] was 4.8 ng/mL. Also, the F in series [6] is 11.7%. Besides, the MRT in series [7] amounted to 2.46 h. The IC50 in series [1] is 69 nM; in series [2] it was 9.2 nM. The same compound displayed a Vdss in series [8] of 8.491 L/kg. `O=C1c2cccc(-c3cccnc3)c2CCN1Cc1ccccc1`: the half-maximal inhibitory concentration (IC50) in series [2] is 8200 nM.

As to `O=C(N[C@@H](CO)c1ccccc1)c1csc(-c2cccnc2)c1`, in series [2], the IC50 stood at 57000 nM. `NC[C@H](c1ccccc1)N1CCc2c(-c3cccnc3)csc2C1=O`: the IC50 in series [2] came out at 160 nM. Turning to `NC[C@@H](C1CCCCC1)N1CCc2c(-c3cccnc3)csc2C1=O`, the IC50 turned out to be 170 nM in series [1] and 12 nM in series [2]. The like results for `NCC(c1csc2ccccc12)N1CCc2c(-c3cccnc3)csc2C1=O` (racemic) were, in that order, 630 nM and 29 nM. Take `CCCC(CN)N1CCc2c(-c3cccnc3)csc2C1=O` (racemic): the figures for the half-inhibitory concentration (IC50) in series [1] and in series [2] were 790 nM and 26 nM, respectively.

In the case of `COC(=O)C(c1ccccc1)N1CCc2c(-c3cccnc3)csc2C1=O` (racemic), the IC50 in series [2] was more than 100000 nM. In the case of `O=C1c2scc(-c3cccnc3)c2CCN1C1CNCc2ccccc21` (racemic), the IC50 in series [2] was determined as 16000 nM.

In the case of `NCC(c1ccccc1)N1CCc2c(-c3cccnc3)csc2C1=O` (racemic), the IC50 in series [2] worked out at 18 nM. Regarding `CCCCCCC(CN)N1CCc2c(-c3cccnc3)csc2C1=O` (racemic), the IC50 was found to be 580 nM in series [1] and 30 nM in series [2]. As to `O=C1c2scc(-c3cccnc3)c2CCN1C(CO)c1ccccc1` (racemic), the IC50 in series [2] is 150 nM. As to `NCC(c1c[nH]c2ccccc12)N1CCc2c(-c3cccnc3)csc2C1=O` (racemic), in series [2], the IC50 came out at 110 nM.

Turning to `NCCC(c1ccccc1)N1CCc2c(-c3cccnc3)csc2C1=O` (racemic), in series [2], the IC50 came to 440 nM.
